# Tests used:
# weed combination = test: Herbicidal activity of citric acid alone, pre-emergence, covered pots; type: in vivo
# Protocol: The weeds used in these tests were the same as those used in Example 4, and observations were made of the effects on individual weeds as well as the weed population as a whole.
# A stock solution of citric acid was made in the manner described in Example 4, and all other test parameters were likewise the same as in Example 4. Weed counts were taken from the various pots at intervals of 7, 12, and 28 days after application of the citric acid, and data analyses were performed in the same manner as Example 1.
# crabgrass = test: Herbicidal activity, cyanamide and citric acid, pre-emergence, covered pots; type: in vivo, Digitaria sanguinalis; settings: C6H8O7 150 mg/kg soil
# Protocol: (§1) The weeds used in these tests were grown from a standard weed seed pack of common annual and perennial weeds representing an extreme weed situation. The weeds included crabgrass (Digitaria sanguinalis), yellow nutsedge (Cyperus esculentus), […] (Ipomoea spp.), pigweed (Amaranthus spp.), and other annual weeds. Observations of the effects on the weed population as a whole were made, and individual observations were made for crabgrass, yellow nutsedge, sicklepod, morningglory, and pigweed. Stock solutions of hydrogen cyanamide at 1.25% by weight and citric acid at 5.0% by weight, both in water, were prepared, the hydrogen cyanamide from a phosphate-buffered 50% aqueous solution. […] Data analyses were performed in the same manner as Example 1. The results expressed in weeds per pot are listed in Table XIV for all weeds, Table XV for crabgrass, Table XVI for yellow nutsedge, Table XVII for sicklepod, Table XVIII for morningglory, and Table XIX for pigweed, all at various application rates for hydrogen cyanamide, with and without citric acid.
# combined weed species = test: as above; type: in vivo; settings: C6H8O7 150 mg/kg soil
# Protocol: as §1
# yellow nutsedge = test: as above; type: in vivo, Cyperus esculentus; settings: C6H8O7 150 mg/kg soil
# Protocol: as §1
# sicklepod = test: as above; type: in vivo, Senna obtusifolia; settings: C6H8O7 150 mg/kg soil
# Protocol: as §1
# morningglory = test: as above; type: in vivo, Ipomoea spp.; settings: C6H8O7 150 mg/kg soil
# Protocol: as §1
compound,measurement,setting,value
"O=C(O)CC(O)(CC(=O)O)C(=O)O [C6H8O7, 2-hydroxy-1,2,3-propanetricarboxylic acid]",Weeds Per Pot (weed combination),"weed combination; 7 d after treatment, citric acid 50 mg/kg soil",16.6
same,Weeds Per Pot (weed combination),"weed combination; 7 d after treatment, citric acid 100 mg/kg soil",11.1
same,Weeds Per Pot (weed combination),"weed combination; 7 d after treatment, citric acid 150 mg/kg soil",14.0
same,Weeds Per Pot (weed combination),"weed combination; 7 d after treatment, citric acid 200 mg/kg soil",12.2
same,Weeds Per Pot (weed combination),"weed combination; 7 d after treatment, citric acid 250 mg/kg soil",11.5
same,Weeds Per Pot (weed combination),"weed combination; 12 d after treatment, citric acid 50 mg/kg soil",29.8
same,Weeds Per Pot (weed combination),"weed combination; 12 d after treatment, citric acid 100 mg/kg soil",25.5
same,Weeds Per Pot (weed combination),"weed combination; 12 d after treatment, citric acid 200 mg/kg soil",20.6
same,Weeds Per Pot (weed combination),"weed combination; 28 d after treatment, citric acid 50 mg/kg soil",28.0
same,Herbicidal activity of citric acid,"weed combination; pre-emergence, covered pots",negligible except at extremely high application rates
same,Weeds Per Pot: Crabgrass,crabgrass; 9 d after treatment,4.6
same,Weeds Per Pot: Crabgrass,crabgrass; 13 d after treatment,8.6
same,Weeds Per Pot: Crabgrass,crabgrass; 19 d after treatment,9.3
same,Weeds Per Pot: Crabgrass,crabgrass; 26 d after treatment,8.1
same,Weeds Per Pot (combined weed species),combined weed species; 9 d after treatment,10.6
same,Weeds Per Pot (combined weed species),combined weed species; 13 d after treatment,15.0
same,Weeds Per Pot (combined weed species),combined weed species; 19 d after treatment,16.5
same,Weeds Per Pot (combined weed species),combined weed species; 26 d after treatment,16.0
same,Weeds Per Pot: Yellow Nutsedge,yellow nutsedge; 13 d after treatment,0.7
same,Weeds Per Pot: Yellow Nutsedge,yellow nutsedge; 19 d after treatment,0.9
same,Weeds Per Pot: Yellow Nutsedge,yellow nutsedge; 26 d after treatment,0.9
same,Weeds Per Pot: Sicklepod,sicklepod; 13 d after treatment,4.6
same,Weeds Per Pot: Sicklepod,sicklepod; 19 d after treatment,5.6
same,Weeds Per Pot: Sicklepod,sicklepod; 26 d after treatment,5.3
same,Weeds Per Pot: Morningglory,morningglory; 13 d after treatment,1.1
same,Weeds Per Pot: Morningglory,morningglory; 19 d after treatment,0.9
same,Weeds Per Pot: Morningglory,morningglory; 26 d after treatment,5.3

# From patent publication US20070116781A1, “Hydrogen Cyanamide Pesticide Formulations” (priority 2005, published 2007)
